This is an account of results in US10030042B2, “Synthesis of bicyclic nucleosides” (MiRagen Therapeutics, Inc., priority 2014, dated 2018).

The subject of data set [1] is RNA Complement. As to conditions: Table 3, cited from earlier work; for Tm: DNA 9mer, phosphate backbone, RNA complement, literature values.
In data set [2] the test system is mature human miR-208a (22 nucleotide RNA complement). Description: Duplex melting temperature (Tm) of anti-208a oligonucleotides annealed to complementary RNA. The conditions noted are these: for ΔTm, DNA: difference to fully DNA phosphodiester 10931; for Tm: RNA complement. In kind it is binding. On the procedure:
The melting temperature (Tm) of modified 16 nucleotide phosphodiester strands were determined and compared to the Tm of identical 16 nucleotide sequences having natural phosphodiester DNA nucleotides. Specifically, the relative aminoCBBN melting temperature (Tm) compared to the 2′-deoxynucleoside or oxoCBBN nucleoside with the same nucleobase was determined on a per incorporation basis by determining the difference between the melting temperature of the amino-modified 16 nucleotide length phosphodiester strand and that of the identical 16 nucleotide sequence utilizing either the 2′-deoxynucleoside or oxoCBBN phosphodiester DNA nucleotide. Tm differences of substitutions were compared only when they were placed in the same position of the sequence.
For example, the modified anti-208a oligonucleotides were annealed to the complementary sequence, twenty-two nucleotides in length, comprised of RNA nucleosides and a phosphate backbone. The complementary sequence was identical to the endogenous mature miRNA. Thermal denaturation temperatures (Tm) were measured as a maximum of the first derivative plot of melting curvex (A260 vs. Temp). The duplexes were constituted at 1 μM in a 0.9% NaCl buffer. Temperature was ramped from 25° C. to 95° C. at 1° C./min and OD's at 260 nm were read once per 30 seconds. Tm values are averages of at least two measurements.
Duplex melting temperatures for various modifications of a 16 nucleotide sequence, complementary to a nucleotide sequence of mature human miR-208a were measured using a Varian Cary 1E UV-Vis Spectrophotometer. Anti-miRNA 208a oligonucleotide sequences tested included a fully DNA phosphodiester (compound M-10931 (SEQ ID NO:9)), four DNA phosphodiester oligonucleotides with 1, 2 or 3 aminoCBBN thymidine residues in place of dT residues (compounds M-11915 (SEQ ID NO: 1), M-11916 (SEQ ID NO:2), M-11917 (SEQ ID NO:3), and M-11918 (SEQ ID NO:4)), mixed 9 LNA/7 DNA phosphorothioate oligonucleotide (compound M-10101 (SEQ ID NO:10)), and 2 mixed LNA/DNA/aminoCBBN phosphorothioate oligonucleotides where LNA thymidines of the parent compound, compound M-10101 (SEQ ID NO: 10), were replaced with either 1 or 2 aminoCBBN residues (compounds M-11920 (SEQ ID NO:6) and M-11919 (SEQ ID NO:5)). Duplexes were constituted at 1 μM in 0.9% NaCl. Temperature was ramped from 25° C. to 95° C. at 1° C./min and OD's at 260 nm were read once per 30 seconds.

In data set [3] the test system is miR-208a. As to the kind of experiment: Dual-luciferase reporter assay in HeLa cells stably expressing miR-208a. Type of data set: cell-based, human. The conditions noted are these: FIG. 4; renilla/firefly luminescence, 24 hours after transfection, in words. On the procedure:
A HeLa cell line stably expressing miR-208a was generated. Specifically, a miRNA expression vector (Cell BioLabs, Inc.) expressing miR-208a was transfected into HeLa cells. Cells were then selected using a puromycin selection screen and clones which had detectable miR-208a expression as measured by qPCR were isolated (Ct value=˜30).
The cells were plated in a black-walled 96 well plate with 10,000 cells per well. After twenty-four hours following plating, the cells were transfected with a dual-luciferase plasmid containing the miR-208a binding site in the 3′ UTR of the renilla gene and various miR-208a inhibitors (compounds M-11919 (SEQ ID NO:5), M-11920 (SEQ ID NO:6), and M-10101 (SEQ ID NO:10)). Compound M-10591 was a non-targeting control. The cells were incubated for 24 hours at 37° C. and then both firefly (as a transfection normalization) and renilla levels were measured by luminescence using the Dual-Luciferase Reporter Assay System (Promega). Data was normalized to cells treated with only the miR-208a dual luciferase plasmid (psi check 208a).

[4] abbreviates: Table 1, phosphate backbone, duplex 1 μM in 0.9% NaCl.
Setting [5] is: Table 3, PS backbone 10101-like.
Setting [6] is: Table 3, PS backbone, versus parent 10101.

Entries after “also recorded” stand apart in the source; their conditions may differ. Oligonucleotides are written 5' to 3', each unit as a sugar letter and its base; * is a phosphorothioate linkage, no mark a phosphodiester; rarer units and linkages stand in square brackets, end groups in braces. Plain capitals give the bases only. [aminoLNA-N] = amino locked nucleic acid nucleoside (N: the base); l = locked nucleic acid (LNA); d = 2'-deoxy (DNA)

As for “dG; IT; dG; dA; IT; dA; IT; dG; dC (DNA dGlTdGdAlTdAlTdGdC) [DNA_9mer_PO_3LNA-T, literature DNA 9mer phosphodiester with three LNA-T]”, the Tm in data set [1] was 50 °C.
For “dC; dT; dT; dT; dT; dT; dG; dC; dT; dC; dG; dT; dC; dT; dT; dA (DNA CTTTTTGCTCGTCTTA; unmodified DNA) [Compound M-10931, reference compound]”, the “ΔTm, DNA” value in data set [2] (Table 1) amounted to 0 °C. In data set [2] (setting [4]), the Tm was 53.1 °C.
As to “ICs; dTs; dTs; dTs; ITs; ITs; dGs; ICs; dTs; ICs; IGs; dTs; ICs; dTs; ITs; IA [Compound M-10101, reference compound]”, in data set [2] (setting [5]), the Tm was 86.7 °C.
Consider “lCs.dTs.dTs.dTs.abTs.abTs.dGs. lCs.dTs.lCs.lGs.dTs.lCs.dTs.lTs.lA [Compound M-11919]”, for which, in data set [2] (setting [5]), the Tm was 80.04 °C. Also, in data set [2] (setting [6]), the “ΔTm, parent” value is −6.66 °C and the ΔTm/mod was −6.66 °C/modification. For the same substance, the miR-208a inhibition activity entry in data set [3] is listed as “comparable activity as compound M-10101; also recorded: retains all activity of the optimized M-10101”.
As to “lCs.dTs.dTs.dTs.lTs.lTs.dGs.lCs. dTs.lCs.lGs.dTs.lCs.dTs.abTs.lA [Compound M-11920]”, in data set [2] (setting [5]), the Tm is 85.125 °C. In addition, in data set [2] (setting [6]), the “ΔTm, parent” value was −1.575 °C and the ΔTm/mod was −0.7875 °C/modification. Besides, the “Affinity for the miR-208a RNA (Tm data, in words)” value in data set [2] (comparison of M-11920 with M-11919) is on record as “less affinity for the miR-208a RNA than the M-11919”. Moreover, the miR-208a inhibition activity entry in data set [3] is listed as “slightly less activity compared to the other two inhibitors”.
Regarding “dG; aIT; dG; dA; aIT; dA; aIT; dG; dC (DNA dG[aminoLNA-T]dGdA[aminoLNA-T]dA[aminoLNA-T]dGdC) [DNA_9mer_PO_3aminoLNA-T, literature DNA 9mer phosphodiester with three aminoLNA-T]”, in data set [1], the Tm was 47 °C. In data set [1] (aminoLNA 9mer versus LNA 9mer), the “ΔTm, parent” value is −1 °C and the ΔTm/mod is −1 °C/modification.
On to “bC.bT.bT.bT.bT.bT.dG.bC.bT.bC. dG.bT.bC.bT.bT.dA [Compound M-10924]”, for which the “ΔTm, DNA” value in data set [2] (Table 1) was found to be 36.7 °C. Moreover, the ΔTm/mod in data set [2] (Table 1, per modification, versus DNA) is 2.8 °C/modification. For the same substance, the Tm in data set [2] (setting [4]) stood at 89.8 °C.
